For one assay, the target named is T1, human recombinant full-length fatty acid synthase (FASN) (Homo sapiens, UniProt P49327).
T1 construct: 40 nM human recombinant full-length fatty acid synthase (produced in-house in SF9 cells); made in house; host or cells: SF9 insect cells
T1 sequence (P49327 whole entry): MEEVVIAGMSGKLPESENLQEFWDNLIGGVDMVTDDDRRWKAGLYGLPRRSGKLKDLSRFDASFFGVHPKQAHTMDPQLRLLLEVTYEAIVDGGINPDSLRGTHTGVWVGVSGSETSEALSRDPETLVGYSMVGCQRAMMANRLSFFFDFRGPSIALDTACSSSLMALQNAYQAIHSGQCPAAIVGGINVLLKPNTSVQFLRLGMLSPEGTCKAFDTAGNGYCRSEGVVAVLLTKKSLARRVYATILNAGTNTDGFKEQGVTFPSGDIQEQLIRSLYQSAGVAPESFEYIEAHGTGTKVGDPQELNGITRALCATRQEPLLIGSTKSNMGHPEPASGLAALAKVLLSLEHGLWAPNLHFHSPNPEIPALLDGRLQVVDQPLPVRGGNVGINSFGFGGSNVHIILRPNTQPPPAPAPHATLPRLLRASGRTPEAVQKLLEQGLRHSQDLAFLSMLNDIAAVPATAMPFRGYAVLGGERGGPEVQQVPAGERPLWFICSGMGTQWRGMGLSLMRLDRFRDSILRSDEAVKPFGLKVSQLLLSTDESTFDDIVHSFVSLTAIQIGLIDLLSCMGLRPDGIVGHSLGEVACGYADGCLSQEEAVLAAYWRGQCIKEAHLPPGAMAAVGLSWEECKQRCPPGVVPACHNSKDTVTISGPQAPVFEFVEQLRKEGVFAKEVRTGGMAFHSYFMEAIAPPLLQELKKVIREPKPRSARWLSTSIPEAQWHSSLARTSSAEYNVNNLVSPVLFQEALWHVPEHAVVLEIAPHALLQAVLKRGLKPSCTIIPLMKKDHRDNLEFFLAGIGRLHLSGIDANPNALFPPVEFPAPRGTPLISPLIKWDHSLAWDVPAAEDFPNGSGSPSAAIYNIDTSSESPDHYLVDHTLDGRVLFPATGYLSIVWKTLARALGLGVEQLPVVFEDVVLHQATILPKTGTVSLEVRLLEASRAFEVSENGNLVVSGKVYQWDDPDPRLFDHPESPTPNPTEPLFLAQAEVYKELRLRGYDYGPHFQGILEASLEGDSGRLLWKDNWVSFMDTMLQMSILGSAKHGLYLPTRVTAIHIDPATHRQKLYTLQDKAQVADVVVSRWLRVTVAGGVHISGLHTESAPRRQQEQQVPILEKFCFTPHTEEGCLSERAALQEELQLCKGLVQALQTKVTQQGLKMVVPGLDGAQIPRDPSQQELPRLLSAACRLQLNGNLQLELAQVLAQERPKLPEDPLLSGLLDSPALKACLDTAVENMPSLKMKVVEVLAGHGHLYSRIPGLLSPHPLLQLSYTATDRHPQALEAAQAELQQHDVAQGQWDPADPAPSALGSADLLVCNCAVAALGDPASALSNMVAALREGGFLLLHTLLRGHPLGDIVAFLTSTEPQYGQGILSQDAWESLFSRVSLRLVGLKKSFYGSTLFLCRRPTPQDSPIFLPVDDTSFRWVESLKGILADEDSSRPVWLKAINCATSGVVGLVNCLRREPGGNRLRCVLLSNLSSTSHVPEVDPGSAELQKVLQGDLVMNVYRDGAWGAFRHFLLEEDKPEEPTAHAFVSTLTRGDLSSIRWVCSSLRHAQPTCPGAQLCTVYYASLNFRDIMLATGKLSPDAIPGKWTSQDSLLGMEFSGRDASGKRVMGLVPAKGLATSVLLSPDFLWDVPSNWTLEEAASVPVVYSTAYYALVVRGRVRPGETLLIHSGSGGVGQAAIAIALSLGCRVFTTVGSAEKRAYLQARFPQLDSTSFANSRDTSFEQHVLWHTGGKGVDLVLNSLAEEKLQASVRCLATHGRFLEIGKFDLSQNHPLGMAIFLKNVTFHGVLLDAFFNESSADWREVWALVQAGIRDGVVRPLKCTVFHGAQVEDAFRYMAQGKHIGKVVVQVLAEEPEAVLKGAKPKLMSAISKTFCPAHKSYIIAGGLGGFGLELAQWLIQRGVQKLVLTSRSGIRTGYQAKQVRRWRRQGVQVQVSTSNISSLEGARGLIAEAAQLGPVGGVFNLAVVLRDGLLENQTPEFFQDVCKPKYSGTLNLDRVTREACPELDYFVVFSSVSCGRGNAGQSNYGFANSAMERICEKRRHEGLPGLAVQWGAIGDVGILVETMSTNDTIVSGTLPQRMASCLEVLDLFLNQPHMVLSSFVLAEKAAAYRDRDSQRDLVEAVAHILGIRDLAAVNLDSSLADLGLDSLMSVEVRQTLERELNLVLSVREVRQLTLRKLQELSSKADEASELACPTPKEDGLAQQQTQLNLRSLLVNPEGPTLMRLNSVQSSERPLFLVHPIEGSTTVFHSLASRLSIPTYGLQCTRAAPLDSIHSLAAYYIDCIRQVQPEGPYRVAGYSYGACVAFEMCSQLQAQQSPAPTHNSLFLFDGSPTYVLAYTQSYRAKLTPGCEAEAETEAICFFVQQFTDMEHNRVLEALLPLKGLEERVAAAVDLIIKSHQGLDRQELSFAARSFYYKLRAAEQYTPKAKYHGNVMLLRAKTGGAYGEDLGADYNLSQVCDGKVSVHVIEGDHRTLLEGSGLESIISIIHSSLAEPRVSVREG
Description: Biochemical activity testing of human fatty acid synthase FASN (NADPH fluorescence intensity enzyme assay). The following applies: at 3 μM. The method, boiled down: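 Recombinant full-length human FASN from SF9 cells, preincubated with compound (10 concentrations, top 30 μM final, 1% DMSO) and NADPH ≥15 min at room temperature, pH 7.0. Acetyl-CoA and malonyl-CoA added; NADPH fluorescence (340/460 nm) read before and after 30 min. IC50 from signal difference, normalised to uninhibited reaction and GSK837149A zero control.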
As for `CC1(NC(=O)[C@H]2CC[C@@H](n3cncc3-c3ccc(-c4cnc5[nH]ccc5c4)cc3)C2)CC1` [Compound A5, (1S,3R)-3-{5-[4-(1H-pyrrolo[2,3-b]pyridin-5-yl)-phenyl]-imidazol-1-yl}-cyclopentanecarboxylic acid (1-methyl-cyclopropyl)-amide], the “Inhibition of FASN (enzyme assay)” value was “Inhibition: −44%”.

The assay is the same for the next values; noted with them: human recombinant FASN, enzyme assay.
On to `CCC(=O)N[C@H]1CC[C@@H](n2nncc2-c2ccc(-c3ccc(OCC4CC4)cc3)cc2)C1` [Compound A92, N-{(1S,3R)-3-[5-(4′-Cyclopropylmethoxy-biphenyl-4-yl)-[1,2,3]triazol-1-yl]-cyclopentyl}-propionamide], for which the IC50 is less than 300 nM.
On to `CCNC(=O)[C@H]1CC[C@@H](n2nncc2-c2ccc(-c3ccc(C#N)cc3)cc2)C1` [Compound A15, (1S,3R)-3-[5-(4′-cyano-biphenyl-4-yl)-[1,2,3]triazol-1-yl]-cyclopentanecarboxylic acid ethylamide], for which the IC50 was less than 300 nM.
Take `CC1(NC(=O)[C@H]2CC[C@@H](n3cncc3-c3ccc(-c4ccc5ncsc5c4)cc3)C2)CC1` [Compound A6, (1S,3R)-3-[5-(4-benzothiazol-6-yl-phenyl)-imidazol-1-yl]-cyclopentanecarboxylic acid (1-methyl-cyclopropyl)-amide amide]: the IC50 is less than 300 nM.
In the case of `CCC(=O)N[C@H]1CC[C@@H](n2nncc2-c2ccc(-c3ccc4[nH]ccc4n3)cc2)C1` [Compound A113, N-((1S,3R)-3-{5-[4-(1H-Pyrrolo[3,2-b]pyridin-5-yl)-phenyl]-[1,2,3]triazol-1-yl}-cyclopentyl)-propionamide], the IC50 was less than 300 nM.
`CCC(=O)N[C@H]1CC[C@@H](n2nncc2-c2ccc(-c3ccc4ncsc4c3)cc2)C1` [Compound A60, N-{(1S,3R)-3-[5-(4-Benzothiazol-6-yl-phenyl)-[1,2,3]triazol-1-yl]-cyclopentyl}-propionamide]: the IC50 is less than 300 nM.
On the same count and under the same terms, to `CCC(=O)N[C@H]1CC[C@@H](n2cnnc2-c2ccc(-c3ccc(Cl)c(F)c3)cc2)C1` [Compound A95, N-{(1S,3R)-3-[3-(4′-Chloro-3′-fluoro-biphenyl-4-yl)[1,2,4]triazol-4-yl]-cyclopentyl}-propionamide] belongs less than 300 nM; to `CCC(=O)N[C@H]1CC[C@@H](n2cnnc2-c2ccc(-c3ccc(C#N)cc3)cc2)C1` [Compound A40, N-{(1S,3R)-3-[3-(4′-cyano-biphenyl-4-yl)-[1,2,4]triazol-4-yl]-cyclopentyl}-propionamide], less than 300 nM; to `CCC(=O)N[C@H]1CC[C@@H](n2nncc2-c2ccc(-c3ccc(C)cc3)cc2)C1` [Compound A84, N-{(1S,3R)-3-[5-(4′-Methyl-biphenyl-4-yl)-[1,2,3]triazol-1-yl]-cyclopentyl}-propionamide], less than 300 nM.
Take `CCNC(=O)[C@H]1CC[C@@H](n2cnnc2-c2ccc(-c3ccc(Cl)cc3)cc2)C1` [Compound A31, (1S,3R)-3-[3-(4′-chloro-biphenyl-4-yl)[1,2,4]triazol-4-yl]-cyclopentanecarboxylic acid ethylamide]: the IC50 is less than 300 nM.
For the compound `CCC(=O)N[C@H]1CC[C@@H](n2nncc2-c2ccc(-c3ccc(C)cc3C)cc2)C1` [Compound A89, N-{(1S,3R)-3-[5-(2′,4′-Dimethyl-biphenyl-4-yl)-[1,2,3]triazol-1-yl]-cyclopentyl}-propionamide], the IC50 is less than 300 nM.
In the case of `CCC(=O)N[C@H]1CC[C@@H](n2nncc2-c2ccc(-c3nc4ccccc4o3)cn2)C1` [Compound A115, N-{(1S,3R)-3-[5-(5-Benzoxazol-2-yl-pyridin-2-yl)-[1,2,3]triazol-1-yl]-cyclopentyl}-propionamide], the IC50 was less than 300 nM.
`CCC(=O)N[C@H]1CC[C@@H](n2nncc2-c2ccc(-c3ccc(C#N)c(F)c3)cc2)C1` [Compound A80, N-{(1S,3R)-3-[5-(4′-Cyano-3′-fluoro-biphenyl-4-yl)-[1,2,3]triazol-1-yl]-cyclopentyl}-propionamide]: the IC50 is less than 300 nM.
Turning to `CCC(=O)N[C@H]1CC[C@@H](n2nncc2-c2ccc(-c3cc4cn[nH]c4cc3C)cc2)C1` [Compound A78, N-((1S,3R)-3-{5-[4-(6-Methyl-1H-indazol-5-yl)-phenyl]-[1,2,3]triazol-1-yl}-cyclopentyl)-propionamide], the IC50 is less than 300 nM.
Still for that read-out and setting: the result for `CCC(=O)N[C@H]1CC[C@@H](n2nncc2-c2ccc(-c3ccc4[nH]ccc4c3F)cc2)C1` [Compound A110, N-((1S,3R)-3-{5-[4-(4-Fluoro-1H-indol-5-yl)-phenyl]-[1,2,3]triazol-1-yl}-cyclopentyl)-propionamide] reads less than 300 nM.
The same measure, in the same setting: the result for `CCNC(=O)[C@H]1CC[C@@H](n2cnnc2-c2ccc(-c3ccc4ncsc4c3)cc2)C1` [Compound A65, (1S,3R)-3-[3-(4-Benzothiazol-6-yl-phenyl)-[1,2,4]triazol-4-yl]-cyclopentanecarboxylic acid ethylamide] reads less than 300 nM; that for `O=C(N[C@H]1CC[C@@H](n2nncc2-c2ccc(-c3nc4ccccc4o3)cc2)C1)[C@@H]1CCCO1` [Compound A69, (S)-Tetrahydro-furan-2-carboxylic acid {(1S,3R)-3-[5-(4-benzooxazol-2-yl-phenyl)-[1,2,3]triazol-1-yl]-cyclopentyl}-amide], less than 300 nM.
As to `CCNC(=O)[C@H]1CC[C@@H](n2nncc2-c2ccc(-c3nc4ccccc4o3)cc2)C1` [Compound A13, (1S,3R)-3-[5-(4-benzoxazol-2-yl-phenyl)-[1,2,3]triazol-1-yl]-cyclopentanecarboxylic acid ethylamide], the IC50 is less than 300 nM.
In the case of `CCC(=O)N[C@H]1CC[C@@H](n2nncc2-c2ccc(-c3ccc(OC)cc3OC)cc2)C1` [Compound A86, N-{(1S,3R)-3-[5-(2′,4′-Dimethoxy-biphenyl-4-yl)-[1,2,3]triazol-1-yl]-cyclopentyl}-propionamide], the half-maximal inhibitory concentration (IC50) was less than 300 nM.
Consider `CCC(=O)N[C@H]1CC[C@@H](n2nncc2-c2ccc(-c3cnc4ccccc4c3)cc2)C1` [Compound A70, N-{(1S,3R)-3-[5-(4-Quinolin-3-yl-phenyl)-[1,2,3]triazol-1-yl]-cyclopentyl}-propionamide], for which the half-maximal inhibitory concentration (IC50) was less than 300 nM.
Take `CCNC(=O)[C@H]1CC[C@@H](n2nncc2-c2ccc(-c3ccc(OCC4CC4)cc3)cc2)C1` [Compound A103, (1S,3R)-3-[5-(4′-Cyclopropylmethoxy-biphenyl-4-yl)-[1,2,3]triazol-1-yl]-cyclopentanecarboxylic acid ethylamide]: the IC50 was less than 300 nM.
Turning to `CCC(=O)N[C@H]1CC[C@@H](n2nncc2-c2ccc(-c3ccc(C#N)cc3)cc2)C1` [Compound A58, N-{(1S,3R)-3-[5-(4′-Cyano-biphenyl-4-yl)-[1,2,3]triazol-1-yl]-cyclopentyl}-propionamide], the half-maximal inhibitory concentration (IC50) was less than 300 nM.

As usually defined, the IC50 is the concentration that inhibits the measured activity by half.
